Test results as given in the NIST ThermoML archive (doi:10.1016/j.fluid.2011.11.023).
Numbers after ± are expanded uncertainties.

Conditions: Crystal; visual observation

In the case of `Nc1cccnc1` [β-aminopyridine], the Normal melting temperature is reported as 64.50 ± 0.5 °C.
